Measured values taken from publication PMC10986499, “Unravelling HetC as a peptidase-based ABC exporter driving functional cell differentiation in the cyanobacterium Nostoc PCC 7120” (Microbiology Spectrum, 2024).

Experiments:
[1] = biological target: T1, HetC (Nostoc sp. PCC 7120 = FACHB-418, UniProt A0ACD7RTN5); experiment: chromogenic peptidase assay at […] nm with purified HetCNTD, […] substrate; type: biochemical
T1 construct: HetCNTD, N-terminal domain (first 480 residues; includes C39 peptidase domain), hexa-his tagged
T1 sequence (A0ACD7RTN5 1-480): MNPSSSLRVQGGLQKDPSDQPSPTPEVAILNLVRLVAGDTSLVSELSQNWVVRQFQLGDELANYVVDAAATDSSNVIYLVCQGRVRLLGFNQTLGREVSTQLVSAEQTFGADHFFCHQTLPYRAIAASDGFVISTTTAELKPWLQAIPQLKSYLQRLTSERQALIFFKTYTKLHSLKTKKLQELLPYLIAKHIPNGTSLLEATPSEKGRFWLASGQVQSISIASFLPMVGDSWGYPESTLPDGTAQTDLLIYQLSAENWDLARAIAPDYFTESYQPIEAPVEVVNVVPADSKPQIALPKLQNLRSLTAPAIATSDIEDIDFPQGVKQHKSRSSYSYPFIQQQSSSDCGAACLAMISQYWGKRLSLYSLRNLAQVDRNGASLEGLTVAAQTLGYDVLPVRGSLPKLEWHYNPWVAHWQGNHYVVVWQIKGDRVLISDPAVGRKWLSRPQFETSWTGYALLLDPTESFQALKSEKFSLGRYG

[2] = biological target: T2, HetC (Nostoc sp. PCC 7120 = FACHB-418, UniProt A0ACD7RTN5); experiment: ITC (triplicate), supported by nanoDSF shift (ΔTm […] °C at […]); type: binding
T2 construct: HetCNTD, N-terminal domain (first 480 residues)

Row | chromogenic peptidase assay at 405 nm with purified HetCNTD, 1 mM substrate [1] | Kd [2] [µM] | SMILES
1 | 0.22 ± 0.08 pmol/min/µg of protein |  | N=C(N)NCCC[C@H](N)C(=O)Nc1ccc([N+](=O)[O-])cc1 [L-Arginine p-nitroanilide]
2 |  | ~59 | Nc1nc2c(ncn2[C@@H]2O[C@H](COP(=O)(O)OP(=O)(O)O)[C@@H](OP(=O)(O)OP(=O)(O)O)[C@H]2O)c(=O)[nH]1 [ppGpp]
